Consider 29 compounds from US7994209B2, “3-phenoxymethylpyrrolidine compounds” (Theravance, Inc., priority 2009, dated 2011).

The target of experiment [1] is T1, hNET (Homo sapiens, UniProt P23975). In words: hNET neurotransmitter uptake assay (3H-NE), Assay 2. Type of experiment: cell-based. Further details: expressed in transfected cells; host or cells: HEK-293. As to conditions: norepinephrine reuptake inhibition, 3H-NE uptake, HEK-293 hNET cells (values without asterisk); read-out: NET pIC50 (converted).
The target of experiment [2] is T2, hSERT (Homo sapiens, UniProt P31645). The experiment in a line: hSERT membrane radioligand binding assay (3H-citalopram), Assay 1. As to conditions: SERT pKi, hSERT HEK-293 membranes, 1.0 nM 3H-citalopram; values given as lower bounds.
Experiment [3] deals with T1, hNET. In words: hNET membrane radioligand binding assay (3H-nisoxetine), Assay 1.
The target of experiment [4] is T2, hSERT. The experiment in a line: hSERT neurotransmitter uptake assay (3H-5-HT), Assay 2. Format: cell-based. Further details: expressed in transfected cells; host or cells: HEK-293. As to conditions: serotonin reuptake inhibition, 3H-5-HT uptake, HEK-293 hSERT cells (values without asterisk); read-out: SERT pIC50 (converted).

As usually defined, the Ki is the equilibrium dissociation constant of an inhibitor or competing ligand from its target. Read a high Ki as lower affinity.

T1 sequence (P23975 whole entry): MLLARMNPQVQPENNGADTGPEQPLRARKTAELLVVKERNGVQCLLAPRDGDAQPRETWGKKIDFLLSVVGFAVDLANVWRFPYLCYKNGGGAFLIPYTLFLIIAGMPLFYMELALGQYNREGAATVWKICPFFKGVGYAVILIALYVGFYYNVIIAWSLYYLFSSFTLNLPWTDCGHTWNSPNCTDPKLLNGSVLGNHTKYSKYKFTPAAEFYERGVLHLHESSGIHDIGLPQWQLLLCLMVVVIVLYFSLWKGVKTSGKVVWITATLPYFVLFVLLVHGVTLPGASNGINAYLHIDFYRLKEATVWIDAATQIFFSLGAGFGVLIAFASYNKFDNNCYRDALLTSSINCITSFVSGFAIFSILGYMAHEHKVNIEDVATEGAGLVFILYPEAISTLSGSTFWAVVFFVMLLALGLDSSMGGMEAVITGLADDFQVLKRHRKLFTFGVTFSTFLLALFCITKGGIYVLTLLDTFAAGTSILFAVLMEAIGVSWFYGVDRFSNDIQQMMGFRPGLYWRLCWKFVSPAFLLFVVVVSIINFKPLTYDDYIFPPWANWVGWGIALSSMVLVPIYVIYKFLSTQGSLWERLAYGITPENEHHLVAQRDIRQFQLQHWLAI
T2 sequence (P31645 whole entry): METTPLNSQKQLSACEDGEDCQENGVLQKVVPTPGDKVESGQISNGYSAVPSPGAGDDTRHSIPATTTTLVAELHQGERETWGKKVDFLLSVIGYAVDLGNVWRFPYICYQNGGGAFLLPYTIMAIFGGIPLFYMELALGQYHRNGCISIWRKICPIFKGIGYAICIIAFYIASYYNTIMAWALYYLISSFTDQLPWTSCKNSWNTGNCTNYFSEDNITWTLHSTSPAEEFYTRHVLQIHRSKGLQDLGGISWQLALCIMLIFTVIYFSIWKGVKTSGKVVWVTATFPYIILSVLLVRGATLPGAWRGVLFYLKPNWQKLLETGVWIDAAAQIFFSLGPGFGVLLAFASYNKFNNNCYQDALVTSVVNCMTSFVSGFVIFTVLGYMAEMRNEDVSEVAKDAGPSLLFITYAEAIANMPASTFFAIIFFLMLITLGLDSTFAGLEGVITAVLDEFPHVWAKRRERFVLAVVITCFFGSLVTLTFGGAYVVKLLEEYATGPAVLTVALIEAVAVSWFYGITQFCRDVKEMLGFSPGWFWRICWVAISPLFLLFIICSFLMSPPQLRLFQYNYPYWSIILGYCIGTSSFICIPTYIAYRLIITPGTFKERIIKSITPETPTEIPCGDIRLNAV

Turning to `Clc1cccc(Cl)c1O[C@@H](C1CC1)[C@H]1CCNC1` [Example 16-44, (S)-3-[(S)cyclopropyl-(2,6-dichlorophenoxy)-methyl]pyrrolidine], the IC50 on hNET [1] is not above 10 nM; at hSERT [4] it was not above 316 nM. Further, the Ki at hSERT [2] is not above 100 nM; on hNET [3], not above 10 nM.
For the compound `CC[C@@H](Oc1c(Cl)ccc(Cl)c1Cl)[C@H]1CCNC1` [Example 2-38, (S)-3-[(R)-1-(2,3,6-Trichlorophenoxy)propyl]pyrrolidine], the values for the IC50 at hNET [1] and on hSERT [4] were not above 10 nM and not above 100 nM, respectively. In addition, the Ki at hSERT [2] and on hNET [3] was not above 10 nM throughout.
As to `CCC[C@@H](Oc1cccc(Cl)c1C)[C@@H]1CCNC1` [Example 4-57, (R)-3-[(R)-1-(3-Chloro-2-methylphenoxy)butyl]pyrrolidine], the IC50 on hNET [1] and at hSERT [4] was not above 10 nM each time. For the same compound, the Ki on hSERT [2] and at hNET [3] was not above 10 nM each time.
Regarding `Cc1cccc(O[C@H](C(C)C)[C@H]2CCNC2)c1C` [Example 6-43, (S)-3-[(R)-1-(2,3-Dimethylphenoxy)-2-methylpropyl]pyrrolidine], the IC50 on hNET [1] and on hSERT [4] was not above 10 nM in each case. The Ki at hSERT [2] and at hNET [3] was not above 10 nM each time.
With `CCC[C@H](Oc1ccc(C)cc1Cl)[C@H]1CCNC1` [Example 4-37, (S)-3-[(S)-1-(2-Chloro-4-methylphenoxy)butyl]pyrrolidine], the IC50 on hNET [1] and on hSERT [4] was not above 10 nM each time. In addition, the Ki on hSERT [2] and at hNET [3] was not above 10 nM throughout.
`CC[C@H](Oc1ccc(F)c(Cl)c1)[C@H]1CCNC1` [Example 2-21, (S)-3-[(S)-1-(3-Chloro-4-fluorophenoxy)propyl]pyrrolidine]: the IC50 is not above 10 nM on hNET [1] and not above 100 nM at hSERT [4]. Besides, the Ki on hSERT [2] and on hNET [3] was not above 10 nM in each case.
`CC(C)CC(Oc1c(F)ccc(Cl)c1F)C1CCNC1` (centres unmarked) [Example 10-59, 3-[1-(3-Chloro-2,6-difluorophenoxy)-3-methylbutyl]pyrrolidine]: the IC50 on hNET [1] and at hSERT [4] was not above 10 nM in each case. Besides, the Ki on hSERT [2] and at hNET [3] was not above 10 nM in each case.
`CCC[C@@H](Oc1cccc(Cl)c1C)[C@H]1CCNC1` [Example 4-55, (S)-3-[(R)-1-(3-Chloro-2-methylphenoxy)butyl]pyrrolidine]: the IC50 at hNET [1] is not above 10 nM; on hSERT [4], not above 100 nM. Also, the Ki on hSERT [2] and on hNET [3] was not above 10 nM throughout.
For the compound `CC[C@H](Oc1ccc(F)c(OC)c1F)[C@H]1CCNC1` [Example 2-57, (S)-3-[(S)-1-(2,4-Difluoro-3-methoxyphenoxy)propyl]pyrrolidine], the IC50 at hNET [1] and on hSERT [4] was not above 100 nM in each case. Besides, the values for the Ki at hSERT [2] and at hNET [3] were not above 10 nM and not above 100 nM, respectively.
Take `CC[C@H](Oc1ccc(Cl)c(F)c1)[C@H]1CCNC1` [Example 2-5, (S)-3-[(S)-1-(4-Chloro-3-fluorophenoxy)propyl]pyrrolidine]: the IC50 on hNET [1] and at hSERT [4] was not above 10 nM throughout. The Ki on hSERT [2] and on hNET [3] was not above 10 nM in each case.
As for `Cc1ccccc1O[C@@H](C1CC1)[C@H]1CCNC1` [Example 16-3, (S)-3-((S)cyclopropyl-o-tolyloxymethyl)pyrrolidine], the IC50 on hNET [1] was not above 10 nM; on hSERT [4] it was not above 316 nM. Besides, the Ki was not above 100 nM on hSERT [2] and not above 10 nM at hNET [3].
In the case of `CC[C@H](Oc1cccc(Cl)c1C(F)(F)F)[C@H]1CCNC1` [Example 2-71, (S)-3-[(S)-1-(3-Chloro-2-trifluoromethylphenoxy)propyl]pyrrolidine], the values for the IC50 at hNET [1] and on hSERT [4] were not above 10 nM and not above 100 nM, respectively. The Ki on hSERT [2] and on hNET [3] was not above 10 nM throughout.
As for `CC(C)C[C@H](Oc1c(F)c(F)cc(F)c1Cl)[C@H]1CCNC1` [Example 10-86, (S)-3-[(S)-1-(2-Chloro-3,5,6-trifluorophenoxy)-3-methylbutyl]pyrrolidine], the IC50 at hNET [1] and at hSERT [4] was not above 10 nM throughout. Also, the Ki at hSERT [2] and on hNET [3] was not above 10 nM throughout.
For the compound `CC(C)[C@H](Oc1ccc(Cl)c(Cl)c1)[C@H]1CCNC1` [Example 6-62, (S)-3-[(S)-1-(3,4-Dichlorophenoxy)-2-methylpropyl]pyrrolidine], the IC50 on hNET [1] and on hSERT [4] was not above 10 nM throughout. Further, the Ki at hSERT [2] and at hNET [3] was not above 10 nM each time.
`CC[C@H](Oc1cc(Cl)cc(Cl)c1)[C@H]1CCNC1` [Example 2-18, (S)-3-[(S)-1-(3,5-Dichlorophenoxy)propyl]pyrrolidine]: the IC50 at hNET [1] and on hSERT [4] was not above 100 nM throughout. Further, the Ki at hSERT [2] was not above 10 nM; on hNET [3] it was not above 100 nM.
With `CC[C@H](Oc1ccccc1Cl)[C@H]1CCNC1` [Example 2-23, (S)-3-[(S)-1-(2-Chlorophenoxy)propyl]pyrrolidine], the results for the IC50 at hNET [1] and on hSERT [4] were not above 10 nM and not above 100 nM, respectively. Further, the Ki at hSERT [2] and at hNET [3] was not above 10 nM throughout.
For the compound `CC[C@H](Oc1c(Cl)ccc(Cl)c1Cl)[C@H]1CCNC1` [Example 2-37, (S)-3-[(S)-1-(2,3,6-Trichlorophenoxy)propyl]pyrrolidine], the IC50 on hNET [1] was not above 10 nM; at hSERT [4] it was not above 100 nM. The Ki at hSERT [2] and on hNET [3] was not above 10 nM each time.
In the case of `CC(C)C[C@H](Oc1ccc(C(F)(F)F)cc1)[C@H]1CCNC1` [Example 10-16, (S)-3-[(S)-3-Methyl-1-(4-trifluoromethylphenoxy)butyl]pyrrolidine], the IC50 at hNET [1] and at hSERT [4] was not above 10 nM each time. Besides, the Ki on hSERT [2] and on hNET [3] was not above 10 nM in each case.
Turning to `CSc1cccc(O[C@@H](C2CC2)[C@H]2CCNC2)c1` [Example 16-86, (S)-3-[(S)cyclopropyl-(3-methylsulfanylphenoxy)methyl]pyrrolidine], the IC50 is not above 10 nM on hNET [1] and not above 100 nM on hSERT [4]. For the same compound, the Ki at hSERT [2] and at hNET [3] was not above 10 nM in each case.
`CCC[C@H](Oc1ccc(F)cc1)[C@H]1CCNC1` [Example 4-5, (S)-3-[(S)-1-(4-Fluorophenoxy)butyl]pyrrolidine]: the IC50 is not above 10 nM on hNET [1] and not above 100 nM on hSERT [4]. The Ki on hSERT [2] and at hNET [3] was not above 10 nM throughout.
As to `CC(C)CC(Oc1c(Cl)cccc1Cl)C1CCNC1` (centres unmarked) [Example 10-53, 3-[1-(2,6-Dichlorophenoxy)-3-methylbutyl]pyrrolidine], the IC50 at hNET [1] and at hSERT [4] was not above 10 nM each time. The Ki on hSERT [2] and on hNET [3] was not above 10 nM each time.
In the case of `CC(C)[C@H](Oc1c(F)ccc(F)c1Cl)[C@H]1CCNC1` [Example 6-36, (S)-3-[(S)-1-(2-Chloro-3,6-difluorophenoxy)-2-methylpropyl]pyrrolidine], the values for the IC50 on hNET [1] and at hSERT [4] were not above 10 nM and not above 100 nM, respectively. Also, the Ki at hSERT [2] and at hNET [3] was not above 10 nM throughout.
For `CC(C)CC(Oc1c(Cl)ccc(Cl)c1F)C1CCNC1` (centres unmarked) [Example 10-58, 3-[1-(3,6-Dichloro-2-fluorophenoxy)-3-methylbutyl]pyrrolidine], the IC50 on hNET [1] and on hSERT [4] was not above 10 nM each time. Besides, the Ki on hSERT [2] and at hNET [3] was not above 10 nM in each case.
Consider `CC(C)C[C@H](Oc1ccc(Cl)cc1F)[C@H]1CCNC1` [Example 10-41, (S)-3-[(S)-1-(4-Chloro-2-fluorophenoxy)-3-methylbutyl]pyrrolidine], for which the IC50 at hNET [1] and on hSERT [4] was not above 10 nM in each case. Moreover, the Ki on hSERT [2] and on hNET [3] was not above 10 nM throughout.
`CC(C)CC(Oc1c(Cl)c(F)cc(F)c1Cl)C1CCNC1` (centres unmarked) [Example 10-84, 3-[1-(2,6-Dichloro-3,5-difluorophenoxy)-3-methylbutyl]pyrrolidine]: the IC50 on hNET [1] and at hSERT [4] was not above 10 nM in each case. Further, the Ki on hSERT [2] and on hNET [3] was not above 10 nM throughout.
In the case of `Clc1cccc(Cl)c1O[C@@H](C1CCCCC1)[C@H]1CCNC1` [Example 19, (S)-3-[(S)-Cyclohexyl-(2,6-dichlorophenoxy)methyl]pyrrolidine], the IC50 at hNET [1] is not above 10 nM; at hSERT [4], not above 100 nM. For the same compound, the Ki on hSERT [2] and at hNET [3] was not above 10 nM throughout.
`CC[C@H](Oc1cccc(Cl)c1Cl)[C@H]1CCNC1` [Example 2-28, (S)-3-[(S)-1-(2,3-Dichlorophenoxy)propyl]pyrrolidine]: the IC50 on hNET [1] and at hSERT [4] was not above 10 nM each time. Moreover, the Ki at hSERT [2] and at hNET [3] was not above 10 nM in each case.
Regarding `Cc1c(Cl)cccc1O[C@H](C(C)C)[C@H]1CCNC1` [Example 6-40, (S)-3-[(R)-1-(3-Chloro-2-methylphenoxy)-2-methylpropyl]pyrrolidine], the IC50 on hNET [1] and at hSERT [4] was not above 10 nM in each case. Also, the Ki at hSERT [2] and on hNET [3] was not above 10 nM in each case.
For `CC(C)[C@H](Oc1cccc(Cl)c1Cl)[C@H]1CCNC1` [Example 6-12, (S)-3-[(S)-1-(2,3-Dichlorophenoxy)-2-methylpropyl]pyrrolidine], the IC50 on hNET [1] and on hSERT [4] was not above 10 nM in each case. For the same compound, the Ki on hSERT [2] and on hNET [3] was not above 10 nM in each case.
